The numbers were not newly measured in publication PMC11387175, “Model informed dose regimen optimizing in development of leritrelvir for the treatment of mild or moderate COVID-19” (Frontiers in Pharmacology, 2024), which cites them from elsewhere.

Like-named read-outs stand apart in the source and are kept apart here.

In this data set the test system is Delta variant. On the set-up: method as in Chen et al., 2023. The conditions noted are these: ref Chen et al., 2023, cited from earlier work.

For the compound `O=C(NC1CCCC1)C(=O)[C@H](C[C@@H]1CCNC1=O)NC(=O)[C@@H]1[C@H]2CCC[C@H]2CN1C(=O)[C@@H](NC(=O)C(F)(F)F)C1CCCCC1` [leritrelvir], the lung pathology entry was “favorable enhancements” and the “viral titers in the lungs of mice after infection” value is on record as “significantly reduced”. Where the note is “300 mg/kg”, the inhibition rate was 42.86%. The inhibition rate (600 mg/kg) is listed as 100%.
